Assay results reported in a melting point compilation (Tetko et al.; mined from patent text by program, amines drawn as free bases though some values may be those of a salt).

| SMILES | melting point [°C] |
| --- | --- |
| CN1C(=O)C(C)(C)Oc2c(C(=O)O)cc(Cl)cc21 | 235 to 236 |
| COC(=O)c1ccc(-c2nc3ccc(C(=O)O)cc3[nH]2)cc1 | 308 to 309 |
| Cc1cn(C2CC3OCC3O2)c(=O)[nH]c1=O (stereo not given) | 188 to 190 |
| COC(=O)c1ccc(CN([C@@H](C)c2ccccc2)S(=O)(=O)c2ccc(Cl)cc2)cc1 | 105 to 106 |
| Nc1c(Cl)cc(C(O)CNCCCCCCOCCSCCc2ccccn2)cc1Cl (stereo not given) | 59.5 to 62 |
| CCc1nc2c(C)cc(C)nc2n1Cc1ccc(C(c2ccccc2)C(C)(C)C(=O)O)cc1 (stereo not given) | 103 to 106 |
| O=C(NCC1(c2ccccc2)CCCCC1)Nc1ccccc1 | 162 to 164 |
| Cc1ccc(-c2ccccc2C(=O)Nc2ccc(C(=O)N3C[C@@H]4CCCN4C(=S)c4ccccc43)cc2)cc1 | 140 to 145 |
| Sc1cccc(CN2CCCCC2)c1 | 121 to 123 |
| CC1(C)NC(=O)N(c2ccc(C#N)c(C(F)(F)F)c2)C1=O | 210 |
| O=C(NCCCOCCCNC(=O)c1ccc(OC(F)(F)F)cc1)c1ccc(OC(F)(F)F)cc1 | 118 to 120 |
| Oc1c(Br)cc(-c2c3ccccc3c(C(F)(F)F)c3sc4ccccc4c23)cc1Br | 223 to 225 |
| COc1ccc2c(c1)CCC1=C2CCC(O)C1 (stereo not given) | 90 to 92 |
| NC(=O)c1ncn2c1NCCC2c1cccc(C(F)(F)F)c1 (stereo not given) | 179 to 181 |
| CCCN1CC(NC(=O)C(C)(C)C)CC2c3cccc4[nH]c(Cl)c(c34)CC21 (stereo not given) | 146 to 147 |
| CCCCCCCCCCCCCCCCNC(=O)OCC(CO)OC (stereo not given) | 47.5 to 48 |
| O=C(CCl)Nc1ccc2cn[nH]c2c1 | 155 to 160 |
| Cn1c(C(=O)O)ccc1C(=O)c1ccccc1 | 178 to 181 |
| COc1ccc2ccnc(Cl)c2c1 | 77 to 78 |
| CCOc1ccc2c(c1)CCN(C(=O)OCc1ccccc1)C21CCC(C(=O)O)(C(=O)O)CC1 | 184 to 185 |

Next, values leading:

| melting point [°C] | SMILES |
| --- | --- |
| 161 | COC(=O)[C@H]1OC(OC(=O)c2ccc(/C=C(\C)c3ccc4c(c3)C(C)(C)CCC4(C)C)cc2)[C@H](OC(C)=O)[C@@H](OC(C)=O)[C@@H]1OC(C)=O (stereo not given in full) |
| 156 to 158 | CC(C)(C)N1C(=O)C2Cc3[nH]cnc3CN2C1=O (stereo not given) |
| 87 to 89 | O=C(Cn1ccnc1)c1cccs1 |
| 97 to 99 | O=Cc1cccnc1Oc1ccc(Cl)c(Cl)c1 |
| 140 | O=C(O)CCC(=O)Oc1c(Cc2ccccc2)ccc2ccccc12 |
| 210 to 212 | Oc1cccc(C=Cc2ccc3ccccc3n2)c1 |
| 165 to 173 | CCOC(=O)c1cn(-c2cc([N+](=O)[O-])c(F)cc2F)c2cc(F)c(F)cc2c1=O |
| 98 | O=[N+]([O-])c1ccc2c(c1)O[C@@H](CNCc1ccccc1)CO2 |
| 284 to 286 | Cc1ccsc1C(=O)c1sc(Nc2ccc(S(N)(=O)=O)cc2)nc1N |
| 94 to 96 | COC(=O)[C@H]1O[C@@H](n2cnc3c(Cl)ncnc32)[C@H](OC(C)=O)[C@@H]1N=[N+]=[N-] |
| 260 | Cc1c(F)c(N2CCC(N)C2)nc2c1c(=O)c(C(=O)O)cn2-c1ccc(F)cc1F (stereo not given) |
| 183 | OCCOCCNc1nc(-n2ccnc2)nc2ccc(CO)cc12 |
| 169 | Cn1ncnc1COc1nn2c(-c3ccccc3F)nncc2c1-c1ccccc1F |
| 196 to 197 | Nc1cc(I)c(I)cc1[N+](=O)[O-] |
| 79.3 to 80.2 | COc1ccc(C=CC(=O)c2cccc(OC)c2OC)cc1F |
| 131 to 134 | OCC1OC(c2ccc(Cl)c(Cc3ccc(-c4ccc(F)nc4)s3)c2)C(O)C(O)C1O (stereo not given) |
| 149 to 151 | CS(=O)(=O)c1ccc(-c2cnn(CC(F)(F)F)c(=O)c2SC2CCCC2)cc1 |
| 190 to 191 | Cc1c(CC(=O)O)c2cc3c(cc2n1C(=O)c1ccc(Cl)cc1)OCO3 |
| 59 to 62 | CC(=O)SCCC(=O)N1CCC=C1C(=O)OC(C)(C)C |
| 145 to 148 | O=c1c2c(Cc3ccc(C(F)(F)F)cc3)n[nH]c2c2cccnc2n1-c1cccc(C(F)(F)F)c1 |
